According to patent US20220144812A1, “QUINOLINE DERIVATIVES AND THEIR USE FOR THE TREATMENT OF CANCER” (Epizyme, Inc., priority 2019, published 2022):
Where two headings read alike, the source gives them in different places.

Key:
[1] = tested on: H3K18Ac in HB-CLS-2 cells; test: H3K18AC in-cell western (ICW) assay; format: cell-based; details: read-out: CREBBP ICW IC50
Outline: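 HB-CLS-2 cells seeded 16–24 hours before 2 hr compound treatment at 37° C, 5% CO2, then methanol-fixed. H3K18Ac detected with rabbit monoclonal primary (overnight, 4° C) and 800CW anti-rabbit secondary; DRAQ5 stained DNA. Plates imaged at 700 and 800 nm for integrated intensity; IC50 in μM.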

[2] = tested on: 647V cells; test: High throughput proliferation (HTP) assay; format: cell-based; details: read-out: CREBBP HTP IC50
Outline: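 Exponentially growing 647V cells in DMEM with 15% FBS were treated in triplicate with increasing compound concentrations at 37° C, 5% CO2. Viable cell number was read by CellTiter-Glo luminescence on day 7; IC50 in micromolar.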

[3] = target: T1, CREBBP (1084-1701) (Homo sapiens, UniProt Q92793); test: Biochemical assay for CREBBP (1084-1701), SAMDI; details: read-out: CREBBP Biochemistry IC50
T1 construct: measured in the following biochemical assay using CREBBP (1084-1701); purchased
T1 sequence (Q92793 1084-1701): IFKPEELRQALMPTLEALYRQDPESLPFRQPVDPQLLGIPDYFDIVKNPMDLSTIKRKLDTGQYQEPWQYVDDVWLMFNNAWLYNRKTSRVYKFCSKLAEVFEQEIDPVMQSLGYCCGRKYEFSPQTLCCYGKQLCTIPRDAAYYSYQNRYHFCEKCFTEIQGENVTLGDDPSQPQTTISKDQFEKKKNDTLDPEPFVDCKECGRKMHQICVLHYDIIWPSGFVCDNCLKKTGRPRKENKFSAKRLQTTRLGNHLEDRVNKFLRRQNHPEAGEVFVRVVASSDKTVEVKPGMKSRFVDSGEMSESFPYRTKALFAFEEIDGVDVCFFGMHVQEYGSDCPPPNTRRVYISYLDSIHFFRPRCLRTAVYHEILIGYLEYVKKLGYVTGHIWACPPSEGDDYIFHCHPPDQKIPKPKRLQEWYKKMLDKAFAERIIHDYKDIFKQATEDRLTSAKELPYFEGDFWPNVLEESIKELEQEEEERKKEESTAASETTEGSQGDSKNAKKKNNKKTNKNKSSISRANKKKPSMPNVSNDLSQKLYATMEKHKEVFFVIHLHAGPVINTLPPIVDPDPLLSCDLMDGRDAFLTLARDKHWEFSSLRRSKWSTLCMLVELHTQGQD
Outline: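 CREBBP (1084-1701) preincubated with compound 30 min at RT, then substrate mix (biotin-H3 11-25 K14R/K23R peptide, acetyl-CoA) added for 30 min at RT. Reaction stopped with formic acid, neutralised with sodium bicarbonate. Peptide acetylation read by SAMDI mass spectrometry to derive IC50.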

[4] = target: T2, EP300 (P300(1048-1664)) (Homo sapiens, UniProt Q09472); test: Biochemical assay for EP300, SAMDI; details: read-out: EP300 Biochemistry IC50
T2 construct: P300(1048-1664)
T2 sequence (Q09472 1048-1664): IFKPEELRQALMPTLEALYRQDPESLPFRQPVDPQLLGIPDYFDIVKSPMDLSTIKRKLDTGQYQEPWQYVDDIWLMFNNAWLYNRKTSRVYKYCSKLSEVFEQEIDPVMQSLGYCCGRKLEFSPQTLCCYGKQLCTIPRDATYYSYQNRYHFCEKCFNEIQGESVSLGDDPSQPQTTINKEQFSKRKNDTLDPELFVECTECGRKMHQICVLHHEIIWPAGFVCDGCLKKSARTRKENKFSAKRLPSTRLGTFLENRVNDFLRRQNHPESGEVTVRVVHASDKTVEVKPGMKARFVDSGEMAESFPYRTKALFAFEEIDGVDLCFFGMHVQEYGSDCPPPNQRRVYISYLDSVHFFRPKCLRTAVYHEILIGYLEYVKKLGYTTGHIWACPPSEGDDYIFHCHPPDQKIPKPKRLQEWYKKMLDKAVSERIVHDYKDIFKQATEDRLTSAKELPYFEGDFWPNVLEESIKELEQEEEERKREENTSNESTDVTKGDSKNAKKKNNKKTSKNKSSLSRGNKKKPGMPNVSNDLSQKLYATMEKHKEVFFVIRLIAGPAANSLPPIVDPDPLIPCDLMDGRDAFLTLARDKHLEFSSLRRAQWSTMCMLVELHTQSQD
Excerpt: The following example describes materials and methods relating to a biochemical assay for EP300. IC50 values (micromolar (μM)) are summarized in Table 1, Table 2, and Table 3 under the column labeled: “EP300 Biochemistry IC50 (micromolar).”

[5] = H3K18Ac in-cell western, HB-CLS-2 cells
[6] = Homo sapiens, 647-V, high throughput proliferation, 647V cells
[7] = Homo sapiens, 647-V, high throughput proliferation
[8] = 2 h, H3K18Ac in HB-CLS-2 cells, 2 hrs compound incubation
[9] = Homo sapiens, 647-V, 168 h, 647V cells, day 7, CellTiter-Glo
[10] = Peptide #233, Acetyl-CoA, SAMDI mass spectrometry
[11] = P300(1048-1664), Peptide #233, Ac-CoA, SAMDI mass spectrometry

SMILES	IC50 ([3]; SAMDI) [nM]	IC50 ([4]; EP300, SAMDI) [nM]	IC50 ([1]; H3K18Ac in-cell western) [nM]	IC50 [2, 7] [nM]	further results
CCn1ncc(CN(C)C(=O)c2cc(-c3cc4[nH]cnc4cn3)nc3ccc(Cl)cc23)c1C [Compound 400]	29	13	–	–	IC50 [1, 5]: 110 nM; IC50 [2, 6]: 110 nM
CCn1ncc(CN(C)C(=O)c2cc(-c3ccc(NCC(O)CNC)c(C)n3)nc3ccc(Cl)cc23)c1C (stereo not drawn) [Compound 457]	15.5	5.7	188	41.7	–
CCn1ncc(CN(C)C(=O)c2nc(-c3cc(C)cc(NC4CCNC4)c3)cc3ccc(Cl)cc23)c1C (stereo not drawn) [Compound 383]	17	5.1	–	–	IC50 [1, 5]: 190 nM; IC50 ([2]; high throughput proliferation, 647V cells): 63 nM
CCn1ncc(CN(C)C(=O)c2nc(-c3ccc4cc[nH]c4c3)nc3ccc(Cl)cc23)c1C [Compound 67]	280	250	780	550	–
CCn1ncc(CN(C)C(=O)c2nc(-c3cnc4n[nH]c(NC)c4c3)nc3ccc(Cl)cc23)c1C [Compound 632]	–	–	–	–	IC50 [1, 8]: 42.1 nM; IC50 [2, 9]: 105 nM; IC50 [3, 10]: 3.2 nM; IC50 [4, 11]: 4.6 nM
CCn1ncc(CN(C)C(=O)c2nc(-c3cc4c(N)n[nH]c4cc3C)nc3ccc(Cl)cc23)c1C [Compound 418]	2.5	2.5	–	–	IC50 [1, 5]: 78 nM; IC50 [2, 6]: 62 nM
CCn1ncc(CN(C)C(=O)c2nc(-c3ccc(OCCN4CCCC4)c(Cl)c3)nc3ccc(Cl)cc23)c1C [Compound 54]	63	330	570	280	–
CCn1ncc(CN(C)C(=O)c2nc(-c3cc(C(=O)NC4CCN(C)CC4)n(C)n3)nc3ccc(Cl)cc23)c1C [Compound 65]	410	790	720	740	–
CCn1ncc(CN(C)C(=O)c2nc(-c3cc(C)nc(NCCN(C)C)c3)nc3ccc(Cl)cc23)c1C [Compound 470]	18.8	9.9	49	–	IC50 ([2]; high throughput proliferation): 25.4 nM
CCn1ncc(CN(C)C(=O)c2cc(-c3ccc(NC(=O)CNC)c(C)n3)nc3ccc(Cl)cc23)c1C [Compound 74]	2100	1100	1000	1500	–
CCn1nc(C)c(CN(C)C(=O)c2cc(-c3ccc(NCCNC)c(C)n3)nc3ccc(Cl)cc23)c1C [Compound 557]	14100	5200	18400	6800	–
CCn1ncc(CN(C)C(=O)c2nc(-c3cc(C)c4c(N)n[nH]c4c3)nc3ccc(COC)cc23)c1C [Compound 524]	16	4	81.4	163	–
CCn1ncc(CN(C)C(=O)c2cc(-c3cnc(N)c(C)n3)nc3ccc(Cl)cc23)c1C [Compound 474]	22800	14500	6530	12800	–
CCn1ncc(CN(C)C(=O)c2nc(-c3cc4nc[nH]c4cc3Cl)nc3ccc(Cl)cc23)c1C [Compound 26]	84	170	210	130	–
CCc1ncc(CN(C)C(=O)c2nc(-c3cc(C)nc(NCCNC)c3)nc3ccc(Cl)cc23)n1C [Compound 574]	47.9	16.9	149	61.3	–
CCn1ncc(CN(C)C(=O)c2nc(-c3ccc(OCCCNC)c(C)c3Cl)nc3ccc(Cl)cc23)c1C [Compound 2]	22	5	34	17	–
CCn1ncc(CN(C)C(=O)c2nc(-c3cc(C(=O)NC)n(C)n3)nc3ccc(Cl)cc23)c1C [Compound 18]	23	10	170	220	–
CCn1ncc(CN(C)C(=O)c2cc(-c3ccc(NCCN(C)C(=O)OC(C)(C)C)cn3)nc3ccc(Cl)cc23)c1C [Compound 113]	4800	1500	2800	6700	–
CCc1cc(-c2nc(C(=O)N(C)Cc3cnn(CC)c3C)c3cc(Cl)ccc3n2)ccc1NC1CCOCC1 [Compound 415]	32	23	–	–	IC50 [1, 5]: 240 nM; IC50 [2, 6]: 240 nM
CCn1ncc(CN(C)C(=O)c2nc(-c3cc(Cl)cc(NCCCN(C)C(=O)OC(C)(C)C)c3)nc3ccc(Cl)cc23)c1C [Compound 115]	160	110	2800	4400	–
CCn1ncc(C(=O)N(C)Cc2cc(-c3ccc(NCCNC)c(C)n3)nc3ccc(Cl)cc23)c1C [Compound 467]	≥ 50000	34200	20000	5580	–
CCn1ncc(CN(C)C(=O)c2nc(-n3nc(N)c4ccc(C)cc43)nc3ccc(Cl)cc23)c1C [Compound 419]	10000	4400	–	–	IC50 [1, 5]: 5800 nM; IC50 [2, 6]: 410 nM
CCn1ncc(CN(C)C(=O)c2cc(-c3cn(CCNC)cn3)nc3ccc(Cl)cc23)c1C [Compound 73]	820	360	1000	–	IC50 ([2]; high throughput proliferation): 1300 nM
CCn1ncc(C(N(C)C(=O)c2cc(-c3ccc(NCCN(C)C)c(C)n3)nc3ccc(Cl)cc23)C(F)(F)F)c1C (stereo not drawn) [Compound 639]	–	–	–	–	IC50 [1, 8]: 20000 nM; IC50 [2, 9]: 2170 nM; IC50 [3, 10]: 50000 nM; IC50 [4, 11]: 50000 nM
CCn1ncc(CN(C)C(=O)c2nc(-c3cc(C)c4c(c3)NCCN4)nc3ccc(Cl)cc23)c1C [Compound 458]	1430	1460	1050	523	–
CCn1ncc(CN(C)C(=O)c2cc(-c3cc(CNC)cc(C)n3)nc3ccc(Cl)cc23)c1C [Compound 473]	322	392	730	380	–
CCn1ncc(CN(C)C(=O)c2cc(-c3cc4[nH]ncc4c(C)n3)nc3ccc(Cl)cc23)c1C [Compound 401]	56	18	–	–	IC50 [1, 5]: 120 nM; IC50 [2, 6]: 130 nM
